Test results reported in the NIST ThermoML archive (doi:10.1021/je049586l).
Numbers after ± are expanded uncertainties. Values belong to the molecule of their own block, whether it stands above or below them.

Assay: molar enthalpy of vaporization or sublimation
Conditions: Crystal, Static calorimetry

- molar enthalpy (492 K): 46.5 ± 1.29 kcal/mol
Compound: O=C(O)c1ccc(C(=O)O)nc1 [2,5-pyridinedicarboxylic acid]

- molar enthalpy (385 K): 31.1 ± 1.82 kcal/mol
Compound: COC(=O)c1cccc(C(=O)OC)n1 [2,6-pyridinedicarboxylic acid, dimethyl ester]

- molar enthalpy (494 K): 40.2 ± 2.63 kcal/mol
Compound: O=C(O)c1cccc(C(=O)O)n1 [pyridine-2,6-dicarboxylic acid]
